Results published in publication PMC2721767 (Purinergic Signalling, 2008).

System: human washed platelets
Assay: ADP-induced aggregation of human washed platelets
Type: cell-based
Conditions: SCH442416 10 μM preapplication, data not shown

In the case of COc1ccc(CCCn2ncc3c2nc(N)n2nc(-c4ccco4)nc32)cc1 [SCH442416, 5-Amino-7-(3-(4-methoxy)phenylpropyl)-2-(2-furyl)pyrazolo[4,3-e]-1,2,4-triazolo[1,5-c]pyrimidine], the “effect of antagonist on inhibition of platelet aggregation by 1 µM 10” value (5 μM ADP) is reported as “completely reversed the inhibitory effect” and the “effect of antagonist alone on aggregation induced by 5 μM ADP” value is reported as “had no effect on aggregation”.
